From article PMC7308088, “A moth odorant receptor highly expressed in the ovipositor is involved in detecting host-plant volatiles” (eLife, 2020)

Target: T1, HassOR31/HassORco (Helicoverpa assulta, UniProt A0A7D3UMA0)
T1 construct: with Odorant receptor coreceptor
T1 sequence (A0A7D3UMA0 1-395): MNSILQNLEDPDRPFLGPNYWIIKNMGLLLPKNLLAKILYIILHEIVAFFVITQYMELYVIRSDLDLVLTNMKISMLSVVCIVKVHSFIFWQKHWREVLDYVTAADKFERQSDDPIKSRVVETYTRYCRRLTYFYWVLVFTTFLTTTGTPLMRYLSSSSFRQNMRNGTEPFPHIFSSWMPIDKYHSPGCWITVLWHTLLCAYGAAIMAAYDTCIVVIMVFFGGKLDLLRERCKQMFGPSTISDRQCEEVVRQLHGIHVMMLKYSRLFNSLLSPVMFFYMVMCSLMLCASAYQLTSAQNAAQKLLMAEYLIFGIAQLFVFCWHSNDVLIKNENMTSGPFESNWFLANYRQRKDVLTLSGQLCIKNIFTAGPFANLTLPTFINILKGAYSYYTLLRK
T1 sequence (A7UGE1 1-473 partner): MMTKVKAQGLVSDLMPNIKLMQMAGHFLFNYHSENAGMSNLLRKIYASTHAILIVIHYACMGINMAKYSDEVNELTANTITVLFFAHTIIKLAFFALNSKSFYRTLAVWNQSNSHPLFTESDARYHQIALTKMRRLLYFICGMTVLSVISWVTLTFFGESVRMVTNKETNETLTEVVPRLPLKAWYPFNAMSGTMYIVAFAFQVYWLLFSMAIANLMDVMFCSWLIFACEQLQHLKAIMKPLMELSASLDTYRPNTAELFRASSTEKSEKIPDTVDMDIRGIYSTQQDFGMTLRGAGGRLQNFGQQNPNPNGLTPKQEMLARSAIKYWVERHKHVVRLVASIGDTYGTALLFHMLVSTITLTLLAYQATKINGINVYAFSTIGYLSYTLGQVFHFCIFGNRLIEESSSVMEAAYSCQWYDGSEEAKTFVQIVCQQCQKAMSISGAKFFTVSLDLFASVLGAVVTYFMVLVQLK
Assay: two-electrode voltage clamp, Xenopus oocytes, inward current
Assay type: cell-based

EC50: 16.1 µM
Structure (SMILES): CC/C=C\CCOC(=O)CCC [Z-3-hexenyl butyrate]
